Values quoted from earlier work, collected in patent publication US20150218090A1, “DOSAGE REGIMEN FOR AN S1P RECEPTOR MODULATOR OR AGONIST” (NOVARTIS AG, priority 2011, published 2015).

Details: administration of 1.25 mg of FTY720; healthy subjects

CCCCCCCCc1ccc(CCC(N)(CO)CO)cc1 [FTY720, 2-amino-2-[2-(4-octylphenyl)ethyl]propane-1,3-diol]
decrease in heart rate: approximately 8 beats/min
